Results published in patent US8518958B2, “Pyrido [2,3-D] pyrimidines and their use as kinase inhibitors” (Forma Therapeutics, Inc., priority 2006, dated 2013).

Columns and labels:
[1] = tested on: HT-29 tumor cells; assay: Anti-proliferative activity, SRB assay; assay type: cell-based, human; conditions: Homo sapiens, HT-29, 72 h, 72 hours exposure, read-out: CELLULAR IC50 HT-29
Procedure: We observed the surprising finding that compounds of the invention were useful in inhibiting proliferation of HT-29 tumor cells (see Table 3).
3,000-15,000 cells/well were exposed to the test compounds at various concentrations appropriate to determine an IC50, for 72 hours, and cell proliferation was measured using the SRB assay according to Shekan et al (J Natl Cancer Inst (1990) 82, 1107-112) in order to estimate the IC50 values shown in Table 3. Briefly, cells were plated in 96 well dishes 24 hours prior to compound addition. The assay was terminated with the addition of cold TCA to a final concentration of 10% and the plates were incubated for one hour at 4° C. The plates were then washed 5 times with water and 100 μl of a Sulforhodamine B solution (4%) was added to each well. The plate was then incubated for 10 minutes at room temperature before removal of unbound dye by washing with 1% acetic acid. The bound dye was solubilized with 10 mM Trizma base and the absorbance read at OD570. Inhibitory activity of the compounds was calculated as % inhibition of cell proliferation compared to cells treated with the solvent (DMSO).

[2] = target: B-Raf delta1-415 (Homo sapiens, UniProt P15056); assay: B-Raf kinase inhibition (MAPH filter plate, 33P-ATP, MEK1 substrate); conditions: read-out: Biochemical IC50 B-Raf
From the text: We characterized the in vitro inhibitory activity against protein kinases of compounds of the present invention by determining their IC50 values (see Table 2).
Kinase: B-Raf delta1-415 (e.g., Upstate Cat. No. 14-530)
Reaction Temperature: room temperature
Assay Plate: 96 well U bottom plate (Greiner, 650161)
MultiScreen-PH Plate: 96 well MAPH Filter Plates (Millipore, MAPHNOB50)
Filter Washing Solution: 0.75% H3PO4
Szintilation Liquid: Supermix Liquid Szintillator (PerkinElmer, 1200-439)
Negative Control (C−): 100 mM EDTA, no Inhibitor
Positive Control (C+): no Inhibitor
Reaction Buffer: 20 mM Mops, pH 7.0 • 10 mM MgCl2 • 0.4 mM MnCl2 • 100 mM NaCl • 1 mM DTT • 0.01% NP40
Final Assay Concentrations:
Kinase: Kinase conc. yielding 50% substrate turnover as determined in titration experiment.
Adenosine 5′-[γ-^33P]triphosphate: 12.5 μCi/ml (Amersham Biosciences, BF1000)
Pipetting Sequence: • 1) Add 10 μl 4-fold concentrated substrate in 3-fold concentrated reaction buffer to each well of assay plate • 2) Add 10 μl 4-fold concentrated inhibitor in 4% DMSO in H2O to each well except to C− and C+ wells (starting point: final inhibitor concentration 10 μM; IC50 determination based on dilution series) • 3) Add 10 μl 4% DMSO in H2O to C− and C+ wells • 4) Add 10 μl 500 mM EDTA in H2O to C− wells • 5) Add 10 μl 50 μCi/ml adenosine 5′-[γ-^33P]triphosphate in H2O+4-fold cold ATP to each well • 6) Add 10 μl 4-fold concentrated kinase in reaction buffer to each well • 7) Incubate 1 hr at room temperature • 8) Add 10 μl 50 mM EDTA in H2O to each well except to C− wells • 9) Prepare MAPH plates by adding 200 μl 0.75% H3PO4 to each well • 10) Exhaust 0.75% H3PO4 using Millipore vacuum station • 11) Add 60 μl 0.75% H3PO4 to each well of MAPH filter plate • 12) Transfer 30 μl sample per well from assay plate to corresponding well of MAPH filter plate • 13) Incubate 30 min at room temperature • 14) Wash each well of MAPH filter plates 3× with 200 μl 0.75% H3PO4 using Millipore vacuum station • 15) Add 20 μl scintillation liquid to each well of MAPH filter plate • 16) Seal MAPH filter plate • 17) Store MAPH filter plate 30 min in darkness • 18) Quantify radioactivity using scintillation counter (MicroBeta, Perkin-Elmer)

Chain of B-Raf delta1-415 (P15056 416-766): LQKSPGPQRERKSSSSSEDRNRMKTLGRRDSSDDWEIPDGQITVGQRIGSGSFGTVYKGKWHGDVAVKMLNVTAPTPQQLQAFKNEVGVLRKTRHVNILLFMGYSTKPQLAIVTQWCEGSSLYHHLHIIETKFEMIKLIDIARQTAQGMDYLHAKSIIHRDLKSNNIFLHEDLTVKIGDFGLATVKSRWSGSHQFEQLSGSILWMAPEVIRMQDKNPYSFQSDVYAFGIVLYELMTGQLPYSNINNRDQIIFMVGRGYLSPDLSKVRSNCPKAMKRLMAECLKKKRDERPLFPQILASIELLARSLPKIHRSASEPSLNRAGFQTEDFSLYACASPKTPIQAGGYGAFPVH

Row | SMILES | IC50 [1] | IC50 [2]
1 | NCCCCOn1c(=O)c(-c2c(Cl)cccc2Cl)cc2cnc(Nc3ccccc3)nc21 [Compound 66, 8-(4-Aminobutyl)oxy-6-(2,6-dichlorophenyl)-2-phenylamino-pyrido[2,3-d]pyrimidin-7-one] | – | < 100 nM
2 | COc1cccc(Nc2ncc3cc(-c4c(F)cccc4Cl)c(=O)n(OC[C@H](O)CO)c3n2)c1 [Compound 76, 6-(2-Chloro-6-fluorophenyl)-8-(2-(R)-2,3-dihydroxypropyl)oxy-2-(3-methoxyphenyl)amino-pyrido[2,3-d]pyrimidin-7-one] | < 1000 nM | < 500 nM
3 | COC(=O)c1cc(Nc2ncc3cc(-c4c(C)cccc4C)c(=O)n(OC)c3n2)cn1C [Compound 79] | < 1000 nM | < 500 nM
4 | CCN(CC)CCNC(=O)c1cc(Nc2ncc3cc(-c4c(Cl)cccc4Cl)c(=O)n(OC)c3n2)cn1C [Compound 81, 6-(2,6-Dichlorophenyl)-2-(5-(2-diethylaminoethyl)aminocarbonyl-1-methyl-pyrrol-3-yl)-amino-8-methoxy-pyrido[2,3-d]pyrimidin-7-one] | < 1000 nM | < 500 nM
5 | COn1c(=O)c(-c2c(Cl)cccc2Cl)cc2cnc(Nc3cc(C(=O)NCCO)n(C)c3)nc21 [Compound 82, 6-(2,6-Dichlorophenyl)-2-(5-(2-hydroxyethyl)aminocarbonyl-1-methyl-pyrrol-3-yl)-amino-8-methoxy-pyrido[2,3-d]pyrimidin-7-one] | < 1000 nM | < 500 nM
6 | COn1c(=O)c(-c2c(C)cccc2C)cc2cnc(Nc3cc(C(=O)NCCO)n(C)c3)nc21 [Compound 83, 6-(2,6-Dimethylphenyl)-2-(5-(2-hydroxyethyl)aminocarbonyl-1-methyl-pyrrol-3-yl)-amino-8-methoxy-pyrido[2,3-d]pyrimidin-7-one] | < 1000 nM | < 500 nM
7 | CCN(CC)CCNC(=O)c1cc(Nc2ncc3cc(-c4c(C)cccc4C)c(=O)n(OC)c3n2)cn1C [Compound 84, 6-(2,6-Dimethylphenyl)-2-(5-(2-diethylaminoethyl)aminocarbonyl-1-methyl-pyrrol-3-yl)-amino-8-methoxy-pyrido[2,3-d]pyrimidin-7-one] | < 1000 nM | < 500 nM
8 | COn1c(=O)c(-c2c(C)cccc2C)cc2cnc(Nc3cc(C(=O)NCCN4CCCC4)n(C)c3)nc21 [Compound 87, 6-(2,6-Dimethylphenyl)-8-methoxy-2-(5-(2-pyrrolidinoethyl)aminocarbonyl-1-methyl-pyrrol-3-yl)-amino-pyrido[2,3-d]pyrimidin-7-one] | < 1000 nM | < 500 nM
9 | COn1c(=O)c(-c2c(Cl)cccc2Cl)cc2cnc(Nc3ccc(OCCO)cc3)nc21 [Compound 89, 6-(2,6-Dichlorophenyl)-2-(4-(2-hydroxyethyl)oxyphenyl) amino-8-methoxy-pyrido[2,3-d]pyrimidin-7-one] | < 1000 nM | < 100 nM
10 | COn1c(=O)c(-c2c(Cl)cccc2Cl)cc2cnc(Nc3nncs3)nc21 [Compound 90, 6-(2,6-Dichlorophenyl)-8-methoxy-2-(1-thia-3,4-diazol-2-yl)-amino-pyrido[2,3-d]pyrimidin-7-one] | < 10000 nM | < 500 nM
11 | COn1c(=O)c(-c2c(Cl)cccc2Cl)cc2cnc(Nc3ccc(OCCN4CCCC4)cc3)nc21 [Compound 91, 6-(2,6-Dichlorophenyl)-8-methoxy-2-(4-(2-pyrrolidinoethyl)oxyphenyl) amino-pyrido[2,3-d]pyrimidin-7-one] | < 1000 nM | < 500 nM
12 | COn1c(=O)c(-c2c(Cl)cccc2Cl)cc2cnc(Nc3cc(C(=O)NCCN4CCCC4)n(C)c3)nc21 [Compound 94, 6-(2,6-Dichlorophenyl)-8-methoxy-2-(5-(2-pyrrolidinoethyl)aminocarbonyl-1-methyl-pyrrol-3-yl)-amino-pyrido[2,3-d]pyrimidin-7-one] | < 1000 nM | < 500 nM
13 | COn1c(=O)c(-c2c(Cl)cccc2Cl)cc2cnc(Nc3cc(C(=O)NCCCN4CCCC4)n(C)c3)nc21 [Compound 95] | < 1000 nM | < 500 nM
14 | C/C=C/C(=O)Nc1ncc2cc(-c3c(C)cccc3C)c(=O)n(OC)c2n1 [Compound 96, 2-But-2-enoylamino-6-(2,6-dimethylphenyl)-8-methoxy-pyrido[2,3-d]pyrimidin-7-one] | > 10000 nM | > 1000 nM
15 | COn1c(=O)c(-c2c(Cl)cccc2Cl)cc2cnc(Nc3ccc(CC#N)cc3)nc21 [Compound 97, 2-(4-cyanomethylphenyl)-amino-6-(2,6-dichlorophenyl)-8-methoxy-pyrido[2,3-d]pyrimidin-7-one] | < 1000 nM | < 100 nM
16 | Cn1cc(Nc2ncc3cc(-c4c(F)cccc4Cl)c(=O)n(OCC4CCOCC4)c3n2)cc1C(=O)N1CCNCC1 [Compound 224, 6-(2-Chloro-6-fluorophenyl)-2-(5-(piperazinocarbonyl)-1-methyl-pyrrol-3-yl)-amino-8-(tetrahydropyran-4-ylmethyl)oxy-pyrido[2,3-d]pyrimidin-7-one] | < 1000 nM | –
17 | CN1CCN(c2ccc(Nc3ncc4ccc(=O)n(OC(C)(C)C)c4n3)cc2)CC1 [Compound 233] | – | > 1000 nM
18 | CN1CCN(c2ccc(Nc3ncc4ccc(=O)n(OC5CCCCC5)c4n3)cc2)CC1 [Compound 236] | < 1000 nM | –

More lines, now with the values ahead:

Row | IC50 [1] | IC50 [2] | SMILES
19 | > 10000 nM | > 10000 nM | CC(C)On1c(=O)c(-c2ccccc2Cl)cc2cnc(Nc3ccccc3)nc21 [Compound 65]
20 | > 10000 nM | > 1000 nM | COn1c(=O)c(-c2c(Cl)cccc2Cl)cc2cnc(NC(=O)C3CC3)nc21 [Compound 80, 2-Cyclopropylcarbonylamino-6-(2,6-dichlorophenyl)-8-methoxy-pyrido[2,3-d]pyrimidin-7-one]
21 | < 10000 nM | < 500 nM | COn1c(=O)c(-c2c(Cl)cccc2Cl)cc2cnc(Nc3ccon3)nc21 [Compound 85, 6-(2,6-Dichlorophenyl)-2-(isoxazol-3-yl)-amino-8-methoxy-pyrido[2,3-d]pyrimidin-7-one]
22 | < 1000 nM | < 1000 nM | COn1c(=O)c(-c2c(Cl)cccc2Cl)cc2cnc(Nc3ccc(C#N)cc3)nc21 [Compound 86, 2-(4-Cyanophenyl)-amino-6-(2,6-dichlorophenyl)-8-methoxy-pyrido[2,3-d]pyrimidin-7-one]
23 | < 10000 nM | < 500 nM | COn1c(=O)c(-c2c(Cl)cccc2Cl)cc2cnc(Nc3cc[nH]n3)nc21 [Compound 88, 6-(2,6-Dichlorophenyl)-8-methoxy-2-(pyrazol-3-yl)-amino-pyrido[2,3-d]pyrimidin-7-one]
24 | < 1000 nM | < 100 nM | COn1c(=O)c(-c2c(Cl)cccc2Cl)cc2cnc(Nc3ccc(OCCN4CC[C@H](O)C4)cc3)nc21 [Compound 92, 6-(2,6-Dichlorophenyl)-2-(4-(2-(3-(S)-hydroxypyrrolidino)ethyl)oxyphenyl)amino-8-methoxy-pyrido[2,3-d]pyrimidin-7-one]
25 | < 1000 nM | < 500 nM | COn1c(=O)c(-c2c(Cl)cccc2Cl)cc2cnc(Nc3ccc(OCC(O)CO)cc3)nc21 (centres unmarked) [Compound 93, 6-(2,6-Dichlorophenyl)-2-(4-(2,3-dihydroxypropyl)oxyphenyl) amino-8-methoxy-pyrido[2,3-d]pyrimidin-7-one]
26 | < 1000 nM | – | COc1cc(Nc2ncc3cc(-c4c(Cl)cccc4Cl)c(=O)n(OC)c3n2)ccc1N1CCNCC1 [Compound 227, 6-(2,6-Dichlorophenyl)-8-methoxy-2-(3-methoxy-4-piperazino-phenyl)-amino-pyrido[2,3-d]pyrimidin-7-one]
